{
  "source": "paper PMC12316734",
  "about": "“Lipase Activation by Poly(Methyl Methacrylate) in Dispersed Solution: Mechanistic Insights by Fluorescence Spectroscopy” (Applied Biochemistry and Biotechnology, 2025)",
  "target": "T1, Bacillus subtilis lipase A (BSLA WT) (Bacillus subtilis, UniProt P37957)",
  "T1 construct": "gene estA",
  "assay": "fluorogenic hydrolysis assay",
  "format": "biochemical",
  "settings": "500 nM enzyme, 20 °C; W42C purified by cation exchange",
  "data": [
    {"smiles": "CCCC(=O)Oc1ccc2c(C)cc(=O)oc2c1", "note": "[4-methylumbelliferyl butyrate]", "values": [
      {"measurement": "fluorogenic hydrolysis assay", "result": "The kinetic effect of PMMA on BSLA WT and W42C was found to be identical"}
    ]}
  ]
}
